Test results: patent US7122173B2, “Agent for the treatment of bladder irritative symptoms accompanied by benign prostatic hyperplasia” (Kyowa Hakko Kogyo Co., Ltd., priority 2001, dated 2006)

Experiments:
[1] = tested on: Na^+ currents in DRG cells; experiment: Voltage clamp, inward Na+ currents in DRG cells; assay type: cell-based, rat
Description: Experiments were performed on adult female Sprague Dawley rats. First and second series of the experiments were performed, respectively, in unidentified DRG neurons and a specific population of DRG neurons innervating the urinary bladder. The population of DRG neurons that innervate the urinary bladder were labeled by retrograde axonal transport of the fluorescent dye, Fast Blue (4% w/v) (Polyloy, Gross Umstadt, Germany), injected into the wall of the bladder in halothane-anesthetized animals 7 days before the dissociation. The dye was injected with a 28 gauge needle at three to six sites on the dorsal surface of the organ (5–6 μL per site, total volume of 20–30 μL). Each injection site was washed with saline to minimize contamination of adjacent organs with the dye.
Freshly dissociated neurons from DRG were prepared from halothane-anesthetized animals. L6 and S1 DRG were dissected from animals and then dissociated in a shaking bath for 25 minutes at 35° C. with 5 mL DMEM (Sigma) containing 0.3 mg/mL trypsin (Type 3, Sigma), 1 mg/mL collagenase (Type 1, Sigma), and 0.1 mg/mL deoxyribonuclease (Type 4, Sigma). Trypsin inhibitor (Type 2a, Sigma) was then added thereto to neutralize the activity of trypsin. Individual DRG cell bodies were isolated by trituration and then plated on a poly-L-lysine-coated 35 mm Petri dishes.
Dye-labeled primary afferent neurons that innervate the urinary bladder were identified using an inverted phase-contrast microscope (Nikon, Tokyo, Japan) with fluorescent attachments (UV-1A filter; excitation wavelength, 365 nm). Gigaohm-seal whole-cell recordings were performed at room temperature (20–22° C.) on each labeled neuron in a culture dish that usually contained three to seven labeled cells among a few hundred unlabeled neurons. The internal solution contained (in mmol/L): KCl 140, CaCl2 1, MgCl2 2, EGTA 11, HEPES 10, Mg-ATP 2, and Tris-GTP 0.4 adjusted to pH 7.4 with KOH. Patch electrodes had resistances of 1–4 M Ω when filled with the internal solution. Neurons were superfused at a flow rate of 1.5 mL/minutes with an external solution containing (in mmol/L): NaCl 150, KCl 5, CaCl2 2.5, MgCl2 1, HEPES 10, and D-glucose 10, adjusted to pH 7.4 with NaOH. All recordings were made with an Axopatch-1D patch-clamp amplifier (Axon Instruments, Foster City, Calif.), and data were acquired and analyzed by PCLAMP software (Axon Instruments).
Inward Na^+ currents were evoked by voltage steps to +60 mV, 800 ms long from a holding potentials of −90 mV. Currents were measured at the maximum (peak) and normalized to control (before addition of the compound).

[2] = tested on: rats with partial urethra obstruction; experiment: Increased urinary frequency accompanied by partial bladder outlet obstruction (metabolism cage urination test); assay type: in vivo, rat
Description: The test was carried out in accordance with the method of Saito et al. (J. Urol., 150: 1045–1051 (1993)). Male SD rats of 8 to 9 weeks of age (supplied by Japan SLC) were used in the test. Five to seven animals of these rats were put in each metal cage and reared by allowing them to freely take commercially available chow and water, in a rearing room at a room temperature of from 19 to 25° C. and a humidity of from 30 to 70% under illumination for 12 hours (from 7 a.m. to 7 p.m.) per day. Partial urethra obstruction was induced in rats as a model of outlet obstruction mimicking BPH. Each rat was anesthetized by intraperitoneal administration of 50 mg/kg of pentobarbital sodium (Dainippon Pharmaceutical) and placed in dorsal position. The abdomen was cut in a length of about 1 cm by midline incision to expose the bladder, prostate and the urethra. The bladder neck and bladder base were peeled from the prostate, and two surgical sutures (No. 3, Natsume Seisakusho) were passed behind the urethra base. A polyethylene tube (PE-200; Becton Dickinson) was placed along the urethra, and the urethra was mildly double-ligated together with the tube. The ligation was carried out in such a manner that the urethra was not pressed by the polyethylene tube and the sutures were not loosened. The polyethylene tube was pulled out and the urethra was partially obstructed. The incised part of the abdomen was sutured with the surgical suture. Five to seven days after the partial urethra constriction operation, the rats subjected to partial urethra obstruction and those subjected to sham-operation were put in metabolism cages (KN-649, Natsume Seisakusho). For acclimatization, rats were reared for 1 day with free drinking and feeding, and the urination test was started on the next day. Using an electronic force balance (HF-200; A and D), the amount of urination by rats was continuously measured as weight, and -recorded on a thermal array recorder (RTA-1200; Nihon Kohden) via a direct current amplifier (AD-641G; Nihon Kohden). The light period (9 to 18 o'clock) under illumination and the dark period (19 to 4 o'clock) under lights off were used as the data collecting periods, and the number of micturition and the urinary volume during these periods were measured to calculate urinary frequency (frequency of micturition per 9 hours), voided volume per micturition and total urine volume as the measuring parameters. In this case, the voided volume per micturition was calculated by dividing the total urine volume per 9 hours by the urinary frequency per 9 hours. Compound 1 or a solvent (0.5 w/v % aqueous methyl cellulose 400 cP (average viscosity: 400 centipoises) solution) was administered twice on the next day between 8 to 9 o'clock and 18 to 19 o'clock, and the number of micturition and urine volume during 9 to 18 o'clock and 19 to 4 o'clock were measured to obtain measured values similarly to the case of the previous day. In the sham-operation group, the urinary frequency, voided volume per micturition and the total urine volume on the first day of the urination test were compared with those in the urethra obstruction group. The urinary frequency, voided volume per micturition and the total urine volume in each group were calculated as average ±standard error.

[3] = Dark period (active period), after administration
[4] = Dark period (active period), before administration (baseline of the Compound 1 group)
[5] = Light period (inactive period), after administration
[6] = Light period (inactive period), before administration (baseline of the Compound 1 group)
[7] = rats with partial urethra obstruction

What does the source list for `C[C@](O)(C(=O)Nc1cccc2c1C(=O)c1sccc1CS2(=O)=O)C(F)(F)F` [Compound 1, (S)-(+)-N-(5,5-dioxido-10-oxo-4,10-dihydrothieno[3,2-c][1]benzothiepin-9-yl)-3,3,3-trifluoro-2-hydroxy-2-methylpropanamide]?
Na^+ ion currents, normalized to control (before addition) ([1]; Compound 1 1.0 × 10^−6 mol/L): 0.99 ± 0.02; Na^+ ion currents, normalized to control (before addition) ([1]; Compound 1 5.0 × 10^−4 mol/L): 1.00 ± 0.01; Na^+ ion currents, normalized to control (before addition) ([1]; Compound 1 5.0 × 10^−5 mol/L): 1.00 ± 0.01; Na^+ ion currents, normalized to control (before addition) ([1]; Compound 1 5.0 × 10^−6 mol/L): 1.00 ± 0.00; Na^+ ion currents, normalized to control (before addition) ([1]; Compound 1 5.0 × 10^−7 mol/L): 0.99 ± 0.01; Na^+ ion currents, normalized to control (before addition) ([1]; Compound 1 5.0 × 10^−8 mol/L): 0.99 ± 0.01; Influence upon Na^+ currents (in words) ([1]; DRG cells): does not exert influence upon Na^+ currents; Total urine volume [2, 3]: 4.83 ± 0.83 mL/9 h; Urinary frequency [2, 3]: 6.7 ± 1.2 micturitions/9 h; Voided volume per micturition [2, 3]: 0.771 ± 0.160 mL; Total urine volume [2, 4]: 3.57 ± 0.57 mL/9 h; Urinary frequency [2, 4]: 10.0 ± 1.3 micturitions/9 h; Voided volume per micturition [2, 4]: 0.362 ± 0.038 mL; Total urine volume [2, 5]: 4.76 ± 0.78 mL/9 h; Urinary frequency [2, 5]: 5.3 ± 0.4 micturitions/9 h; Voided volume per micturition [2, 5]: 0.899 ± 0.127 mL; Total urine volume [2, 6]: 4.80 ± 0.31 mL/9 h; Urinary frequency [2, 6]: 8.7 ± 0.8 micturitions/9 h; Voided volume per micturition [2, 6]: 0.577 ± 0.064 mL; Effect on urinary frequency (in words) [2, 7]: significantly reduced urinary frequency; Effect on voided volume per micturition (in words) [2, 7]: tended to increase voided volume per micturition
